Assay results reported in BindingDB's records for doi:10.1021/cb9000102 (Pfizer, 2009).

Molecular target: Biotin carboxylase (Escherichia coli (strain K12), UniProt P24182)
Test: ACCase-Coupled Enzyme Assay
Details: pH 8; 23 °C
Protocol: To each well of the plate consisting of 50 mM Hepes (pH 8.0), 100 mM KCl, 1 mM TCEP, 5 mM MgCl2, 0.1 mg/mL BSA, 0.005% (vol/vol) Tween 20, 30 nM E. coli BC, 50 nM E. coli CT, 50 nM biotinylated E. coli BCCP, and 0.5 unit/mL E. coli purine nucleoside phosphorylase was added. […] Reaction progress was monitored by the increase in absorbance at 360 nm. […] Inhibition data were fit to the standard IC50 equation.

IC50	SMILES
59.3 µM	Cc1nc(-c2ccnc(N)n2)cs1 [amino pyrimidine, 6]
0.007 µM	Cc1ccccc1CN(Cc1ccc2c(c1)OCCO2)C(=O)c1cnc(N)o1 [amino-oxazole, 2d]

The next lines start with the compound.

SMILES	IC50
Cc1nc2nc(N)[nH]c2c(O)c1Cc1ccccc1 [amino imidazo-pyridinone, 8]	2.4 µM
Nc1nccc(C(=O)c2ccccc2)n1 [amino pyrimidine, 7]	8.2 µM
CCCCN(Cc1ccccc1)C(=O)c1cnc(N)o1 [amino-oxazole, 2b]	1.29 µM
